Data set [1] deals with CB1 receptor (Rattus norvegicus (Rat), UniProt P20272). Description: rCB1 competition-equilibrium binding with [3H]CP-55,940, rat brain membranes. As for the experimental part: Frozen rat brains (CB1 source) are obtained from Pel-Freeze Biologicals (Rogers, Ak.) and stored at −80° C. until use. Membranes are prepared according to the method described by Dodd et al. and used in our laboratory as reported.
(§1) All the cannabinoids discussed in this invention are tested for their ability to bind to CB1 and CB2 receptors using membranes from rat brain or HEK293 cells expressing either mCB2 or hCB2, respectively via competition-equilibrium binding using [^3H]CP-55,940. Results are analyzed using nonlinear regression to determine ligand IC50 (Prism by GraphPad Software, Inc.), and Ki values are calculated from the IC50. IC50 and Ki values are determined from at least three independent experiments.

The target of data set [2] is mCB2 receptor (Mus musculus (Mouse), UniProt P47936). Kind of data set: mCB2 competition-equilibrium binding with [3H]CP-55,940, membranes of HEK293 cells expressing mCB2. As for the experimental part:
(§2) HEK293 cells expressing hCB1 or hCB2 or mCB2 receptor are used for membrane preparations according to Abadji et al. The resulting pellet is resuspended in 10 mM Tris-chloride, pH 7.4, with 5 mM MgCl2 and 2 mM EDTA (TME), rapidly frozen in liquid nitrogen and stored at −80° C. for no longer than two months. Protein content is assayed by using the Bio-Rad protein assay according to the manufacturer's protocol.
as §1

In data set [3] the target is hCB2 receptor (Homo sapiens (Human), UniProt P34972). Description: hCB2 competition-equilibrium binding with [3H]CP-55,940, membranes of HEK293 cells expressing hCB2. As for the experimental part: as §2, §1
Data set [4] can be described thus: Stability in plasma (half-life). It is filed as in vitro ADME, rat or monkey. The note with it: method: 200 μM in plasma, 37°; species of plasma not given. As for the experimental part:
The designed compounds carry a side chain that is susceptible to plasma esterase activity, inviting their rapid deactivation. Thus, it is important to characterize the rate of compound metabolism in isolated rat or monkey plasma. As a preliminary predictor of oral stability, this assay will also be done in buffers at pH 2 (to emulate the stomach) and pH 7.4 (physiological pH). Compounds (10 mM in DMSO) are diluted in plasma, acetonitrile or buffer to a concentration of 200 μM and incubated in a 37° shaking water bath for 2 hours. Samples are taken periodically, diluted 1:4 with acetonitrile and centrifuged to precipitate protein. The resulting supernatant is analyzed by HPLC to predict expected in vivo plasma half-lives.

For data set [5] the following is noted: background statement; cited from earlier work.
The conditions of data set [6]: background statement; cited from earlier work. The source holds these as a separate data set.
The conditions of data set [7]: background statement, up to; cited from earlier work.
The mark [8] stands for this setting: rat brain membranes, [3H]CP-55,940, read-out: rCB1 Ki.
Where [9] appears, read: HEK293 cells expressing mCB2, [3H]CP-55,940, read-out: mCB2 Ki.
[10] abbreviates: HEK293 cells expressing hCB2, [3H]CP-55,940, read-out: hCB2 Ki.

SMILES strings stand for the structures. pKi: −log10 of the molar value. Like-named read-outs stand apart in the source and are kept apart here.

For `CC1=CC[C@@H]2[C@@H](C1)c1c(O)cc(C3(C(=O)OCCCCBr)CCC3)cc1OC2(C)C` [Compound 1.18, 4-bromobutyl 1-((6aR,10aR)-1-hydroxy-6,6,9-trimethyl-6a,7,10,10a-tetrahydro-6H-benzo[c]chromen-3-yl)cyclobutanecarboxylate], the pKi (as a rule, the Ki on a negative log10 scale, so that one unit is a factor of ten) is 9.52 in data set [1] (setting [8]), 8.43 in data set [2] (setting [9]) and 9.15 in data set [3] (setting [10]). The half-life – broadly, the time needed for the level to fall by half in the phase considered – at 200 μM in data set [4] was determined as 50 min.

For the molecule `CC1=CC[C@@H]2[C@@H](C1)c1c(O)cc(C3(C(=O)OCCCCC#N)CCC3)cc1OC2(C)C` [Compound 1.19, 4-cyanobutyl 1-((6aR,10aR)-1-hydroxy-6,6,9-trimethyl-6a,7,10,10a-tetrahydro-6H-benzo[c]chromen-3-yl)cyclo butanecarboxylate], the pKi is 9.05 in data set [1] (setting [8]), 8.82 in data set [2] (setting [9]) and 8.74 in data set [3] (setting [10]). In data set [4], this molecule showed a half-life at 200 μM of 107 min.

`CCCCOC(=O)C1(c2cc(O)c3c(c2)OC(C)(C)[C@@H]2CC=C(C)C[C@@H]32)CCC1` [Compound 1.20, butyl 1-((6aR,10aR)-1-hydroxy-6,6,9-trimethyl-6a,7,10,10a-tetrahydro-6H-benzo[c]chromen-3-yl)cyclobutane carboxylate]: the pKi in data set [1] (setting [8]) was 9.15; in data set [2] (setting [9]) it was 9.15; in data set [3] (setting [10]) it was 9.40. The half-life at 200 μM in data set [4] turned out to be 40 min.

Consider `CC1=CC[C@@H]2[C@@H](C1)c1c(O)cc(C(C)(C)C(=O)OCCCCN3CCOCC3)cc1OC2(C)C` [Compound 1.24, 4-morpholinobutyl 2-((6aR,10aR)-1-hydroxy-6,6,9-trimethyl-6a,7,10,10a-tetrahydro-6H-benzo[c]chromen-3-yl)-2-methylpropanoate], for which the pKi in data set [1] (setting [8]) is 7.47; in data set [2] (setting [9]), 7.14; in data set [3] (setting [10]) it was 7.40. In data set [4], this molecule registered a half-life at 200 μM of 68 min.

Consider `CC1=CC[C@@H]2[C@@H](C1)c1c(O)cc(C(C)(C)C(=O)OCCCN3CCOCC3)cc1OC2(C)C` [Compound 1.25, 3-morpholinopropyl 2-((6aR,10aR)-1-hydroxy-6,6,9-trimethyl-6a,7,10,10a-tetrahydro-6H-benzo[c]chromen-3-yl)-2-methylpropanoate], for which the results for the pKi in data set [1], in data set [2] and in data set [3] were 7.82, 7.98 and 8.06, respectively. Also, in data set [4], the half-life at 200 μM came out at 200 min.

In the case of `CC1=CC[C@@H]2[C@@H](C1)c1c(O)cc(CC(=O)OCCCCBr)cc1OC2(C)C` [Compound 1.27, 4-bromobutyl-2-((6aR,10aR)-6a,7,10,10a-tetrahydro-1-hydroxy-6,6,9-trimethyl-6H-benzo[c]chromen-3-yl)acetate], the pKi in data set [1] (setting [8]) was 8.66; in data set [2] (setting [9]), 7.94; in data set [3] (setting [10]), 8.15. In data set [4], this molecule had a half-life at 200 μM of 3 min.

As to `CC1=CC[C@@H]2[C@@H](C1)c1c(O)cc(CC(=O)OCCCCC#N)cc1OC2(C)C` [Compound 1.28, 4-cyanobutyl-2-((6aR,10aR)-6a,7,10,10a-tetrahydro-1-hydroxy-6,6,9-trimethyl-6H-benzo[c]chromen-3-yl)acetate], the pKi is 7.84 in data set [1] (setting [8]), 8.68 in data set [2] (setting [9]) and 8.92 in data set [3] (setting [10]). The half-life at 200 μM in data set [4] turned out to be 4.8 min.

Take `CCCCOC(=O)Cc1cc(O)c2c(c1)OC(C)(C)[C@@H]1CC=C(C)C[C@@H]21` [Compound 1.29, Butyl-2-((6aR,10aR)-6a,7,10,10a-tetrahydro-1-hydroxy-6,6,9-trimethyl-6H-benzo[c]chromen-3-yl)acetate]: the pKi in data set [1] (setting [8]) was 7.39; in data set [2] (setting [9]) it was 7.57; in data set [3] (setting [10]), 8.09. This molecule also registered a half-life at 200 μM in data set [4] of 5 min.

For `COC(=O)C(C)(C)c1cc(O)c2c(c1)OC(C)(C)[C@@H]1CC=C(C)C[C@@H]21` [Compound 1.34, Methyl-2-((6aR,10aR)-6a,7,10,10a-tetrahydro-1-hydroxy-6,6,9-trimethyl-6H-benzo[c]chromen-3-yl)-2-methylpropanoate], the negative logarithm of the Ki (pKi) in data set [1] (setting [8]) was 7.08; in data set [2] (setting [9]), 7.46; in data set [3] (setting [10]) it was 7.43. Moreover, the half-life at 200 μM in data set [4] was determined as 60 min.

`CCCCOC(=O)C(C)(C)c1cc(O)c2c(c1)OC(C)(C)[C@@H]1CC=C(CO)C[C@@H]21` [Compound 2.2, Butyl-2-((6aR,10aR)-6a,7,10,10a-tetrahydro-1-hydroxy-9-(hydroxymethyl)-6,6-dimethyl-6H-benzo[c]chromen-3-yl)-2-methylpropanoate]: the values for the pKi in data set [1] (setting [8]), in data set [2] (setting [9]) and in data set [3] (setting [10]) were 9.22, 8.82 and 9.10, respectively. The half-life at 200 μM in data set [4] was 5 min.

As for `CC(C)(C(=O)OCCCCn1ccnc1)c1cc(O)c2c(c1)OC(C)(C)[C@@H]1CC=C(CO)C[C@@H]21` [Compound 2.3, 4-(1H-imidazol-1-yl)-butyl-2-((6aR,10aR)-6a,7,10,10a-tetrahydro-1-hydroxy-9-(hydroxymethyl)-6,6-dimethyl-6H-benzo[c]chromen-3-yl)-2-methylpropanoate], the pKi is 7.60 in data set [1] (setting [8]), 7.94 in data set [2] (setting [9]) and 8.06 in data set [3] (setting [10]). For the same molecule, the half-life at 200 μM in data set [4] was 120 min.

For the molecule `CCCCOC(=O)C(C)(C)c1cc(O)c2c(c1)OC(C)(C)[C@@H]1CC[C@@H](O)C[C@@H]21` [Compound 3.6, Butyl-2-((6aR,9R,10aR)-6a,7,8,9,10,10a-hexahydro-1,9-dihydroxy-6,6-dimethyl-6H-benzo[c]chromen-3-yl)-2-methylpropanoate], the pKi in data set [1] (setting [8]) was 10.00; in data set [2] (setting [9]) it was 9.70; in data set [3] (setting [10]) it was 9.70. Further, in data set [4], the half-life at 200 μM is 3 min.

On to `CCCCOC(=O)C(C)(C)c1cc(O)c2c(c1)OC(C)(C)[C@@H]1CC[C@H](O)C[C@@H]21` [Compound 3.8, Butyl-2-((6aR,9S,10aR)-6a,7,8,9,10,10a-hexahydro-1,9-dihydroxy-6,6-dimethyl-6H-benzo[c]chromen-3-yl)-2-methylpropanoate], for which the pKi was 8.51 in data set [1] (setting [8]), 8.18 in data set [2] (setting [9]) and 8.35 in data set [3] (setting [10]). For the same molecule, in data set [4], the half-life at 200 μM was found to be 8 min.

Turning to `CCCCCc1cc(O)c2c(c1)OC(C)(C)[C@@H]1CCC(C)=C[C@@H]21` [Dronabinol], in data set [5], the “clog P” value was above 7. For the same molecule, the protein binding in data set [6] was at least 97%. For the same molecule, in data set [7], the “slow and erratic absorption” value was 2 to 6 h.

Consider `CCCCCCC(C)(C)c1cc(O)c2c(c1)OC(C)(C)C1CCC(=O)CC21` (stereo not drawn) [Nabilone], for which, in data set [5], the “clog P” value is given as above 7. For the same molecule, the protein binding in data set [6] is at least 97%.

These data come from patent publication US10882838B2, “Cannabinergic compounds and uses thereof” (Northeastern University, priority 2012, dated 2021).
